Laboratory results reported in patent US20040242502A1, “Semi-synthetic saponin analogs with carrier and immune stimulatory activities for DNA and RNA vaccines” (Galenica Pharmaceuticals, Inc., priority 2003, published 2004).
Values joined by “and” are separate entries in the source; they are usually repeats but may differ in a detail not shown here. Identical values can stand only once.

System: Female Balb/c mice
Assay: Immunization of Balb/c mice with OVA cDNA in the presence and absence of DMPS; anti-OVA antibody ELISA of serum
Assay type: in vivo
Details: anti-OVA ELISA on OVA coated plates, serum dilution 1:100, bled 14 days after last immunization, i.m. days 1 and 15, 20 OVA DNA alone or +50 DMPS
Description: Female Balb/c mice were immunized intramuscularly at days 1 and 15 with 0.2 mL of phosphate buffered saline solution (PBS) containing 20 μg of chicken OVA cDNA alone or with 50 μg of 3-dimethylamino-1-propylamino-DS-saponin (DMPS). The complete OVA cDNA was sub-cloned into a mammalian expression vector containing the human β-actin promotor and the neomycin resistant gene, under control of the SV40 promotor, to yield pAC-Neo-OVA. Negative control animals received PBS only. Animals were bled 14 days after the last immunization. Total IgG and IgG2a were determined by ELISA using OVA coated plates and a serum dilution of 1:100. The serum dilution was incubated at 37° C. for 1 hour and the plates were washed. After incubation with anti IgG-HRP conjugate, the plates were washed and developed with a TMB substrate for 15 minutes at room temperature, stopped by the addition of 0.18 M sulfuric acid, and read at 450 nm.

3-dimethylamino-1-propylamino-DS-saponin [DMPS]
Absorbance (450 nm), Average (average of 5 mice ± spread): 0.188 ± 0.093
Absorbance (450 nm), individual mice (mice 1-5): 0.400 and 0.210 and 0.092 and 0.140 and 0.100
